Values of other authors as cited in patent publication US20110098303A1, “Method of promoting nail growth using thyromimetic compounds” (priority 2002, published 2011).

Tests used:
nail growth = details: in vivo
AGA mouse = details: topical treatment

## N[C@@H](Cc1ccc(O)c(O)c1)C(=O)O [I-dopa]
Nail growth
  rate of nail growth: accelerate the rate of nail growth

## N[C@@H](Cc1cc(I)c(Oc2ccc(O)c(I)c2)c(I)c1)C(=O)O [T3, 3,5,3′-triiodo-L-thyronine]
AGA mouse
  effect on testosterone induced alopecia: inhibitory effect
mice; administered locally, directly to the skin
  hair growth: dramatic acceleration of hair growth
mice; systemically administered
  growth of hair: inhibits the growth of hair

## O=C(O)CCCC[C@@H]1SC[C@@H]2NC(=O)N[C@@H]21 [biotin]
Nail growth
  rate of nail growth: accelerate the rate of nail growth

## N[C@@H](CSSC[C@H](N)C(=O)O)C(=O)O [cystine]
Nail growth
  rate of nail growth: accelerate the rate of nail growth

## CSCC[C@H](N)C(=O)O [methionine]
Nail growth
  rate of nail growth: accelerate the rate of nail growth
